Legend:
[1] = target: T1, Hypoxia-inducible factor 1-alpha (Homo sapiens, UniProt Q16665); assay: Activation of human HIF1alpha expressed in DFX-induced human U2OS cells incubated for 30 mins prior to DFX-induction measured after overnight incubation by luciferase reporter gene assay
[2] = Activation of human HIF1alpha expressed in human U2OS cells assessed as increase in VEGF expression by RT-PCR analysis
[3] = Activation of GFP-tagged HIF1alpha expressed in human U2OS cells assessed as HIF1alpha nuclear translocation by high content imaging assay
[4] = target: T1, Hypoxia-inducible factor 1-alpha; assay: Activation of human HIF1alpha expressed in DFX-induced human U2OS cells incubated for 30 mins prior to DFX-induction measured after overnight incubation by luciferase reporter gene assay in presence of 50 uM iron
[5] = target: T1, Hypoxia-inducible factor 1-alpha; assay: Activation of human HIF1alpha expressed in DFX-induced human U2OS cells incubated for 30 mins prior to DFX-induction measured after overnight incubation by luciferase reporter gene assay in presence of 50 uM zinc

T1 sequence (Q16665 whole entry): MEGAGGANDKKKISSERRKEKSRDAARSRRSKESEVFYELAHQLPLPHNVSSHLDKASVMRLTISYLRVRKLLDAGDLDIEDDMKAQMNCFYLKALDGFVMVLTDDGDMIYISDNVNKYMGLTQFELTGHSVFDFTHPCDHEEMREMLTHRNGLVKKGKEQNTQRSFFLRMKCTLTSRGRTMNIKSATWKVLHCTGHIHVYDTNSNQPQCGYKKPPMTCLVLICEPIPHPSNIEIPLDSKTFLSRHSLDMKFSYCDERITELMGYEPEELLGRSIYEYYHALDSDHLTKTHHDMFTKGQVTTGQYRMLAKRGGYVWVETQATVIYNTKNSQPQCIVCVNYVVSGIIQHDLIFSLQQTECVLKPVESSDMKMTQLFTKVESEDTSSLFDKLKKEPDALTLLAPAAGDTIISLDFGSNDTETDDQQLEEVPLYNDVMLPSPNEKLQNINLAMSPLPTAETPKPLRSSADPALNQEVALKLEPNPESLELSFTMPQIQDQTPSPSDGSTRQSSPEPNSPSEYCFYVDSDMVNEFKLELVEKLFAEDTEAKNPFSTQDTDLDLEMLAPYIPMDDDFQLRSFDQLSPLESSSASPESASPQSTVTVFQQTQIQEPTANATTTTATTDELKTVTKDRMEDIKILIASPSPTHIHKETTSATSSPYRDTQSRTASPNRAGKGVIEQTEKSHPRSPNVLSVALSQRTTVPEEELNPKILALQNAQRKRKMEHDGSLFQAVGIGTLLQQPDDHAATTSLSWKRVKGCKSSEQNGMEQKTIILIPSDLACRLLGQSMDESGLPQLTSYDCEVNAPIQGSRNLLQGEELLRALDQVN

Work on `Cc1cccc(Nc2nc(-c3ccccn3)nnc2-c2ccccc2)n1` yielded an EC50 [1] of 22.4 µM, an EC50 [2] of 7.55 µM and an EC50 [3] of 5.41 µM.
With `c1ccc(-c2nnc(-c3ccccn3)nc2Nc2cnc3ccccc3n2)cc1` the EC50 [1] was 7.64 µM, the EC50 [2] was 3.26 µM and the EC50 [3] was 4.46 µM.
In the case of `Cc1ccccc1CNc1nc(-c2ccccn2)nnc1-c1ccccc1`, the EC50 [1] is reported as 6.67 µM, the EC50 [2] is reported as 3.08 µM and the EC50 [3] is reported as 9.54 µM.
Molecule `Cc1cccc(CNc2nc(-c3ccccn3)nnc2-c2ccccc2)c1` has an EC50 [1] of 5.41 µM, an EC50 [2] of 2.91 µM and an EC50 [3] of 2.39 µM.
`Cc1ccc(CNc2nc(-c3ccccn3)nnc2-c2ccccc2)cc1` showed an EC50 [1] of 4.58 µM, an EC50 [2] of 2.6 µM and an EC50 [3] of 1.19 µM.
Work on `C[C@H](Nc1nc(-c2ccccn2)nnc1-c1ccccc1)C1CCCCC1` yielded an EC50 [1] of 4.17 µM, an EC50 [2] of 2.55 µM and an EC50 [3] of 2.06 µM.
Work on `C[C@@H](Nc1nc(-c2ccccn2)nnc1-c1ccccc1)C1CCCCC1` yielded an EC50 [1] of 6.73 µM, an EC50 [2] of 1.88 µM and an EC50 [3] of 1.2 µM.
Molecule `c1ccc(-c2nnc(-c3ccccn3)nc2NCC2CCOCC2)cc1` has an EC50 [1] of 29.5 µM, an EC50 [2] of 8.38 µM and an EC50 [3] of 7.67 µM.
`c1ccc(CCNc2nc(-c3ccccn3)nnc2-c2ccccc2)cc1` showed an EC50 [1] of 3.63 µM, an EC50 [2] of 8.72 µM and an EC50 [3] of 9.82 µM.
Work on `c1ccc(-c2nnc(-c3ccccn3)nc2NCCc2ccccn2)cc1` yielded an EC50 [1] of 17.5 µM, an EC50 [2] of 9.6 µM and an EC50 [3] of 9.84 µM.
`Cc1ccc(CNc2nc(-c3ccccn3)nnc2-c2ccccc2)cc1C` gave an EC50 [1] of 2.96 µM, an EC50 [2] of 1.85 µM and an EC50 [3] of 2.3 µM.
Work on `Clc1cccc(CNc2nc(-c3ccccn3)nnc2-c2ccccc2)c1` yielded an EC50 [1] of 2.33 µM, an EC50 [2] of 2.77 µM and an EC50 [3] of 1.49 µM.
In the case of `COc1ccc(CNc2nc(-c3ccccn3)nnc2-c2ccccc2)cc1`, the EC50 [1] is reported as 4.74 µM, the EC50 [2] is reported as 3.67 µM and the EC50 [3] is reported as 3.73 µM.
Work on `COc1cccc(CNc2nc(-c3ccccn3)nnc2-c2ccccc2)c1` yielded an EC50 [1] of 4.15 µM, an EC50 [2] of 3.92 µM and an EC50 [3] of 6.27 µM.
With `CC(C)(C)c1ccc(CNc2nc(-c3ccccn3)nnc2-c2ccccc2)cc1` the EC50 [1] was 1.71 µM, the EC50 [2] was 1.12 µM and the EC50 [3] was 0.6 µM.
In the case of `c1ccc(-c2nnc(-c3ccccn3)nc2NCc2cccnc2)cc1`, the EC50 [1] is reported as 26 µM, the EC50 [2] is reported as 4.35 µM and the EC50 [3] is reported as 5.02 µM.
For `c1ccc(-c2nnc(-c3ccccn3)nc2NCc2ccccn2)cc1`, the EC50 [1] was 27.8 µM, the EC50 [2] was 6.45 µM and the EC50 [3] was 7.62 µM.
Molecule `c1ccc(-c2cccc(CNc3nc(-c4ccccn4)nnc3-c3ccccc3)c2)cc1` has an EC50 [1] of 2.49 µM, an EC50 [2] of 2.57 µM and an EC50 [3] of 0.5 µM.
Work on `c1ccc(-c2ccc(CNc3nc(-c4ccccn4)nnc3-c3ccccc3)cc2)cc1` yielded an EC50 [1] of 1.12 µM, an EC50 [4] of 15.6 µM and an EC50 [5] of 5.01 µM. It also gave an EC50 [2] of 1.63 µM and an EC50 [3] of 1.4 µM.
In the case of `O=C(NCCCCO)c1cc(-c2ccccc2)on1`, the EC50 [1] is reported as 22 µM, the EC50 [2] is reported as 7.57 µM and the EC50 [3] is reported as 3.04 µM.
`O=C(NCC1CC1)c1cc(-c2ccccc2)on1` showed an EC50 [1] of 24.9 µM, an EC50 [2] of 21.5 µM and an EC50 [3] of 16.6 µM.
For `c1ccc(-c2nnc(-c3ccccn3)nc2NCC2CC2)cc1`, the EC50 [1] was 12.7 µM, the EC50 [2] was 6.21 µM and the EC50 [3] was 4.27 µM.
With `c1ccc(-c2nnc(-c3ccccn3)nc2NCC2CCCCC2)cc1` the EC50 [1] was 4.74 µM, the EC50 [2] was 3.45 µM and the EC50 [3] was 2.46 µM.
`CC(C)(C)CCNc1nc(-c2ccccn2)nnc1-c1ccccc1` showed an EC50 [1] of 2.97 µM, an EC50 [2] of 2.48 µM and an EC50 [3] of 3.82 µM.
`OCCCNc1nc(-c2ccccn2)nnc1-c1ccccc1` showed an EC50 [1] of 25 µM, an EC50 [2] of 10.6 µM and an EC50 [3] of 10.5 µM.
`c1ccc(-c2nnc(-c3ccccn3)nc2NCCN2CCOCC2)cc1` gave an EC50 [1] of 20.8 µM, an EC50 [2] of 10 µM and an EC50 [3] of 9.08 µM.
Work on `c1ccc(-c2nnc(-c3ccccn3)nc2NCCCN2CCOCC2)cc1` yielded an EC50 [1] of 14.2 µM, an EC50 [2] of 8.12 µM and an EC50 [3] of 6.27 µM.
In the case of `OCC1CCN(c2nc(-c3ccccn3)nnc2-c2ccccc2)CC1`, the EC50 [1] is reported as 22.9 µM, the EC50 [2] is reported as 12.1 µM and the EC50 [3] is reported as 11.6 µM.
For `CN1CCN(c2nc(-c3ccccn3)nnc2-c2ccccc2)CC1`, the EC50 [1] was 21.9 µM, the EC50 [2] was 8.69 µM and the EC50 [3] was 10.2 µM.
Molecule `O=C(NCCCN1CCOCC1)c1cc(-c2ccccc2)on1` has an EC50 [1] of 23.9 µM, an EC50 [2] of 28 µM and an EC50 [3] of 20 µM.
In the case of `CCCCNC(=O)c1cc(-c2ccc(F)cc2)on1`, the EC50 [1] is reported as 8.85 µM.
`C=CCNc1nc(-c2ccccn2)nnc1-c1ccccc1` [6-phenyl-N-prop-2-enyl-3-(2-pyridinyl)-1,2,4-triazin-5-amine] showed an EC50 [1] of 7.13 µM, an EC50 [2] of 6.15 µM and an EC50 [3] of 4.62 µM.
With `c1ccc(CNc2nc(-c3ccccn3)nnc2-c2ccccc2)cc1` [GNF-Pf-100] the EC50 [1] was 7.74 µM, the EC50 [2] was 4.48 µM and the EC50 [3] was 4.8 µM.
For `CN(C)c1nc(-c2ccccn2)nnc1-c1ccccc1` [MLS000541553], the EC50 [1] was 7.46 µM, the EC50 [2] was 9.06 µM and the EC50 [3] was 9.82 µM.
Molecule `O=C(NCCCn1ccnc1)c1cc(-c2ccccc2)on1` [MLS000708948] has an EC50 [1] of 8.67 µM, an EC50 [2] of 15.8 µM and an EC50 [3] of 7.72 µM.
Work on `CC(=O)N(O)CCCCCNC(=O)CCC(=O)N(O)CCCCCNC(=O)CCC(=O)N(O)CCCCCN` [N-[5-[[4-[5-[acetyl(hydroxy)amino]pentylamino]-4-oxobutanoyl]-hydroxyamino]pentyl]-N''-(5-aminopentyl)-N''-hydroxybutanediamide;methanesulfonic acid] yielded an EC50 [1] of 17.8 µM.

From BindingDB's records for doi:10.1016/j.bmcl.2011.11.077 (The Broad Institute Probe Development Center, 2011)
